{"source": "paper PMC9063988", "about": "(JACS Au, 2022)", "origin": "cited, not measured here", "system": "SARS-CoV-2 spike pseudo-lentiviral vector into A549 cells overexpressing ACE2 and TMPRSS2", "data": [{"compound": "O=c1c2ccccc2[se]n1-c1ccccc1", "note": "[ebselen]", "values": [{"measurement": "inhibition of entry of SARS-CoV-2 lentivectors", "value": "only at high IC50 with high toxicity"}]}]}
